Tests used:
rat intestinal maltase [1] = target: T1, rat intestinal maltase; test: maltose hydrolysis, glucose assay kit, absorbance at […] nm; assay type: biochemical; conditions: maltose (2 mM stock), 0.1 M phosphate pH 6.9, 37 °C, 10 min; read-out: α-Glucosidase Inhibitory Effect (IC50, mM) ^a / Maltase
T1 construct: gene Mgam; native, crude extract of rat intestinal acetone powder (Sigma), not purified; maltose-hydrolysing activity, shared by maltase-glucoamylase and sucrase-isomaltase

rat intestinal maltase [2] = target: T1, rat intestinal maltase; test: maltose hydrolysis, glucose assay kit, Lineweaver-Burk with secondary replots; assay type: biochemical; conditions: mixed inhibition; maltose 0.5-8 mM; pH 6.9, 37 °C
Excerpt: maltose hydrolysis, glucose assay kit, Lineweaver-Burk with secondary replots on rat intestinal maltase

SMILES: CCCCCCCCS[C@H]1OC[C@H]2[C@@H]1CO[C@@H]2c1ccc2c(c1)OCO2 [2α-7a]
- IC50 (rat intestinal maltase [1]): > 30 mM

SMILES: OCCCCCCS[C@H]1OC[C@H]2[C@@H]1CO[C@@H]2c1ccc2c(c1)OCO2 [2α-7b]
- IC50 (rat intestinal maltase [1]): > 30 mM

SMILES: c1cc2c(cc1[C@H]1OC[C@H]3[C@@H]1CO[C@@H]3SC1CCCCC1)OCO2 [2α-7c]
- IC50 (rat intestinal maltase [1]): > 30 mM

SMILES: Oc1ccc(S[C@H]2OC[C@H]3[C@@H]2CO[C@@H]3c2ccc3c(c2)OCO3)cc1 [2α-7f]
- IC50 (rat intestinal maltase [1]): 14.7 ± 1 mM

SMILES: CC(C)(C)c1cc(SC2OCC3C(c4ccc5c(c4)OCO5)OCC23)cc(C(C)(C)C)c1O (stereo not drawn) [2α-7o]
- Ki (rat intestinal maltase [2]): 0.03 mM
- IC50 (rat intestinal maltase [1]): 11.8 ± 0.3 mM

SMILES: CCCCCCCCO[C@H]1OC[C@H]2[C@@H]1CO[C@@H]2c1ccc2c(c1)OCO2 [2α-9b]
- IC50 (rat intestinal maltase [1]): > 30 mM

SMILES: Oc1ccc(S[C@@H]2OC[C@H]3[C@@H]2CO[C@@H]3c2ccc3c(c2)OCO3)cc1 [2β-7f]
- IC50 (rat intestinal maltase [1]): 14.2 ± 0.8 mM

SMILES: C[C@H]1O[C@H](O[C@H]2[C@H](O)[C@@H](O)[C@@H](O[C@H]3[C@H](O)[C@@H](O)C(O)O[C@@H]3CO)O[C@@H]2CO)[C@H](O)[C@@H](O)[C@@H]1N[C@H]1C=C(CO)[C@@H](O)[C@H](O)[C@H]1O (stereo partly drawn) [acarbose, reference compound]
- IC50 (rat intestinal maltase [1]): 1.4 ± 0.2 mM
